Test results as given in patent publication US20170349550A1, “ACTIVE COMPOUND COMBINATIONS” (BAYER CROPSCIENCE AKTIENGESELLSCHAFT, priority 2014, published 2017).
Several values for one entry are separate records, joined by “and”; a condition that tells them apart may be missing. Equal values may be shown once. Read-outs that look alike come from different tables or passages of the source.

Assays:
[1] = tested on: Leptosphaeria nodorum; assay: in vivo preventive Leptosphaeria nodorum test (wheat); conditions: 8 days after inoculation
Procedure: After the spray coating has been dried, the plants are sprayed with a spore suspension of Leptosphaeria nodorum. […] The plants are placed in the greenhouse at a temperature of approximately 25° C. and a relative atmospheric humidity of approximately 80%.
(§1) The test is evaluated 8 days after the inoculation.

[2] = tested on: Blumeria graminis f.sp. hordei; assay: in vivo preventive Blumeria test (barley); conditions: 7 days after inoculation
[3] = tested on: Septoria tritici; assay: in vivo preventive Septoria tritici test (wheat); conditions: 21 days after inoculation
Procedure: After the spray coating has been dried, the plants are sprayed with a spore suspension of Septoria tritici. […] The plants are placed in the greenhouse at a temperature of approximately 15° C. and a relative atmospheric humidity of approximately 80%.
The test is evaluated 21 days after the inoculation.

[4] = tested on: Fusarium graminearum; assay type: in vivo; conditions: barley, 5 days after inoculation
[5] = tested on: Puccinia triticina; assay: in vivo preventive Puccinia triticina test (wheat); conditions: 8 days after inoculation
Procedure: After the spray coating has been dried, the plants are sprayed with a spore suspension of Puccinia triticina.
as §1

[6] = tested on: Fusarium nivale (var. majus); assay: in vivo preventive Fusarium nivale (var. majus) test (wheat); conditions: 5 days after inoculation
Procedure: After the spray coating has been dried, the plants are slightly injured by using a sandblast and afterwards they are sprayed with a conidia suspension of Fusarium nivale (var. majus). The plants are placed in the greenhouse under a translucent incubation cabinet at a temperature of approximately 10° C. and a relative atmospheric humidity of approximately 100%.
The test is evaluated 5 days after the inoculation.

[7] = tested on: Botrytis cinerea; assay: in vivo preventive test on Botrytis test (beans); conditions: size of lesions 2 days after inoculation
Procedure: Solvent: 24.5 parts by weight of acetone • 24.5 parts by weight of dimethylacetamide Emulsifier: 1 part by weight of alkylaryl polyglycol ether
After the spray coating has dried on, 2 small pieces of agar covered with growth of Botrytis cinerea are placed on each leaf. The inoculated plants are placed in a darkened chamber at 20° C. and a relative atmospheric humidity of 100%.
2 days after the inoculation, the size of the lesions on the leaves is evaluated.

[8] = tested on: Alternaria solani; assay: in vivo preventive test on Alternaria test (tomatoes); conditions: 3 days after inoculation
Procedure: After the spray coating has dried on, the plants are inoculated with an aqueous spore suspension of Alternaria solani.
The test is evaluated 3 days after the inoculation.

[9] = tested on: Sphaerotheca fuliginea; assay: in vivo preventive test on Sphaerotheca test (cucumbers); conditions: 7 days after inoculation
Procedure: After the spray coating has dried on, the plants are inoculated with an aqueous spore suspension of Sphaerotheca fuliginea. The plants are then placed in a greenhouse at approximately 23° C. and a relative atmospheric humidity of approximately 70%.
(§2) The test is evaluated 7 days after the inoculation.

[10] = tested on: Venturia inaequalis; assay: in vivo preventive test on Venturia test (apples); conditions: 10 days after inoculation
Procedure: The plants are then placed in a greenhouse at approximately 21° C. and a relative atmospheric humidity of approximately 90%.
The test is evaluated 10 days after the inoculation.

[11] = tested on: Phakopsora pachyrhizi; assay: in vivo preventive test on Phakopsora test (soybeans); conditions: 7 days after inoculation
Procedure: After the spray coating has dried on, the plants are inoculated with an aqueous spore suspension of the causal agent of soybean rust (Phakopsora pachyrhizi) and stay for 24 h without light in an incubation cabinet at approximately 24° C. and a relative atmospheric humidity of 95%. The plants remain in the incubation cabinet at approximately 24° C. and a relative atmospheric humidity of approximately 80% and a day/night interval of 12 h.
as §2

[12] = tested on: Uromyces appendiculatus; assay: in vivo preventive test on Uromyces test (beans); conditions: 10 days after inoculation
Procedure: The plants are then placed in a greenhouse at approximately 21° C. and a relative atmospheric humidity of approximately 90%. The test is evaluated 10 days after the inoculation.

[13] = tested on: Pyrenophora teres; assay: in vivo preventive Pyrenophora teres test (barley); conditions: 8 days after inoculation
Procedure: After the spray coating has been dried, the plants are sprayed with a spore suspension of Pyrenophora teres.
as §1

Compound	Efficacy in % found ([1]; 25 ppm a.i.) [%]	Efficacy in % found ([1]; 50 ppm a.i.)	Efficacy in % found ([2]; 25 ppm a.i.)	Efficacy in % found ([3]; 25 ppm a.i.) [%]	Efficacy in % found ([3]; 50 ppm a.i.)	Efficacy in % found ([4]; 50 ppm a.i.) [%]	Efficacy in % found ([5]; 25 ppm a.i.) [%]	Efficacy in % found ([8]; 0.5 ppm a.i.)	Efficacy in % found ([8]; 1 ppm a.i.) [%]	Efficacy in % found ([11]; 0.25 ppm a.i.)	Efficacy in % found ([5]; 50 ppm a.i.)	Efficacy in % found ([11]; 0.5 ppm a.i.)	Efficacy in % found ([1]; 100 ppm a.i.) [%]	other results
Fc1ccc([C@]2(Cn3cncn3)O[C@H]2c2ccccc2Cl)cc1 (racemic) [1.12, epoxiconazole]	43	57%	30%	0	63% and 33%	0	40							Efficacy in % found ([2]; 12.5 ppm a.i.): 14%; Efficacy in % found ([6]; 12.5 ppm a.i.): 13%
OC(Cn1cncn1)(c1ccc(F)cc1)c1ccccc1F (centres unmarked) [1.22, flutriafol]								0%	0	0%				Efficacy in % found ([7]; 0.25 ppm a.i.): 0%; Efficacy in % found ([7]; 0.5 ppm a.i.): 15%; Efficacy in % found ([7]; 1 ppm a.i.): 30%; Efficacy in % found ([8]; 0.25 ppm a.i.): 0%; Efficacy in % found ([9]; 1 ppm a.i.): 24%; Efficacy in % found ([10]; 0.25 ppm a.i.): 0%; Efficacy in % found ([10]; 0.5 ppm a.i.): 0%; Efficacy in % found ([10]; 1 ppm a.i.): 8%; Efficacy in % found ([11]; 1 ppm a.i.): 0%
CC1(C)CCC(Cc2ccc(Cl)cc2)C1(O)Cn1cncn1 (centres unmarked) [1.30, metconazole]	0		93% and 80%	17	33%	14	20				10%			Efficacy in % found ([2]; 50 ppm a.i.): 93%; Efficacy in % found ([5]; 12.5 ppm a.i.): 0%
OC(Cc1ccccc1Cl)(Cn1nc[nH]c1=S)C1(Cl)CC1 (centres unmarked) [1.41, prothioconazole]								15% and 8%	15	0%		0%		Efficacy in % found ([12]; 0.25 ppm a.i.): 0%; Efficacy in % found ([12]; 1 ppm a.i.): 0%; Efficacy in % found ([10]; 1 ppm a.i.): 0%
CC(C)(C)C(O)(CCc1ccc(Cl)cc1)Cn1cncn1 (centres unmarked) [1.47, tebuconazole]								8% and 0%		0%		0%		Efficacy in % found ([8]; 0.25 ppm a.i.): 0%; Efficacy in % found ([12]; 0.25 ppm a.i.): 0%; Efficacy in % found ([12]; 0.5 ppm a.i.): 0%; Efficacy in % found ([12]; 1 ppm a.i.): 0%
CCC1CC(C)(C)c2cccc(NC(=O)c3cccnc3C(F)F)c21 (centres unmarked) [(I-3), 2-(difluoromethyl)-N-(3-ethyl-1,1-dimethyl-2,3-dihydro-1H-inden-4-yl)nicotinamide]	0	14%	0%					23%					43	Efficacy in % found ([12]; 0.25 ppm a.i.): 90%; Efficacy in % found ([9]; 0.5 ppm a.i.): 0%; Efficacy in % found ([3]; 100 ppm a.i.): 83%; Efficacy in % found ([4]; 25 ppm a.i.): 0%; Efficacy in % found ([10]; 1 ppm a.i.): 11%
CC[C@@H]1CC(C)(C)c2cccc(NC(=O)c3cccnc3C(F)F)c21 [(I-4), 2-(difluoromethyl)-N-[(3R)-3-ethyl-1,1-dimethyl-2,3-dihydro-1H-inden-4-yl]nicotinamide]		0%		75	75%				40	33% and 65%		75%		Efficacy in % found ([2]; 50 ppm a.i.): 0%; Efficacy in % found ([10]; 0.5 ppm a.i.): 16%; Efficacy in % found ([6]; 12.5 ppm a.i.): 13%; Efficacy in % found ([6]; 25 ppm a.i.): 13%
CCCC1CC(C)(C)c2cccc(NC(=O)c3cccnc3C(F)F)c21 (centres unmarked) [(I-5), 2-(difluoromethyl)-N-(1,1-dimethyl-3-propyl-2,3-dihydro-1H-inden-4-yl)nicotinamide]		38%				29				43% and 60%		78% and 89%	38	Efficacy in % found ([12]; 0.5 ppm a.i.): 95%; Efficacy in % found ([4]; 25 ppm a.i.): 0%; Efficacy in % found ([5]; 12.5 ppm a.i.): 30%
CCC[C@@H]1CC(C)(C)c2cccc(NC(=O)c3cccnc3C(F)F)c21 [(I-6), 2-(difluoromethyl)-N-[(3R)-1,1-dimethyl-3-propyl-2,3-dihydro-1H-inden-4-yl]nicotinamide]		14%	40%		75%				27	60% and 75%				Efficacy in % found ([8]; 0.25 ppm a.i.): 16%
cyproconazole [1.5]		0%			50%		70				80%			Efficacy in % found ([13]; 25 ppm a.i.): 25% and 22%; Efficacy in % found ([13]; 50 ppm a.i.): 25%; Efficacy in % found ([13]; 100 ppm a.i.): 0%; Efficacy in % found ([1]; 12.5 ppm a.i.): 0%; Efficacy in % found ([3]; 100 ppm a.i.): 17%
difenoconazole [1.7]	29	29% and 43%			0%	0	20				50%		13	Efficacy in % found ([13]; 12.5 ppm a.i.): 22%; Efficacy in % found ([13]; 50 ppm a.i.): 13%; Efficacy in % found ([2]; 50 ppm a.i.): 60% and 71% and 40%; Efficacy in % found ([4]; 100 ppm a.i.): 0%; Efficacy in % found ([5]; 12.5 ppm a.i.): 0%; Efficacy in % found ([6]; 12.5 ppm a.i.): 0%
propiconazole [1.40]			43% and 80%	0	0%		25				0% and 10%		25	Efficacy in % found ([13]; 25 ppm a.i.): 22%; Efficacy in % found ([13]; 50 ppm a.i.): 13% and 25%; Efficacy in % found ([13]; 100 ppm a.i.): 25%; Efficacy in % found ([3]; 100 ppm a.i.): 38%
